IC50 data for 17 compounds are collected here from patent publication US9309263B2, “Fused multi-cyclic sulfone compounds as inhibitors of beta-secretase and methods of use thereof” (AMGEN INC., priority 2013, dated 2016).

Where two headings read alike, the source gives them in different places.

By IC50 is commonly meant the concentration that inhibits the measured activity by half.

The target in one test is Cathepsin D (Cat D) (Homo sapiens, UniProt P07339). In words: In vitro enzymatic Cathepsin D (Cat D) FRET assay. The format is biochemical. In a few lines: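 Recombinant CHO-expressed enzyme (9 nM) pre-incubated 1 h with serially diluted inhibitor in 0.05 M citrate pH 3.5, 10% DMSO final, 5 mM CHAPS. Reaction started with 20 nM FRET peptide substrate, run 1 h, stopped with Tris to neutral pH; fluorescence read at ex 500/em 580 nm.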

The subject of test [1] is Aβ 40 in conditioned medium of cells stably expressing Amyloid Precursor Protein (APP). In words: In vitro BACE cell-based assay (Aβ 40 sandwich ELISA). The note with it: Homo sapiens, HEK293. In outline: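 APP-expressing cells, 24 h pre-culture in DMEM/10% FBS, treated 24 h with 10-point compound dilutions from 100 or 10 μM top, 0.1% DMSO final. Secreted Aβ40 quantified by sandwich ELISA (pAb40 capture, biotinylated 6E10 detection, europium TRF); IC50 from percent inhibition versus concentration.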
(In general: ELISA stands for enzyme-linked immunosorbent assay.)

The target of test [2] is Beta Secretase enzyme (BACE) (Homo sapiens, UniProt P56817). In words: In vitro enzymatic BACE FRET assay. The format is biochemical. The note with it: read-out: BACE1 FRET assay IC50. In outline: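 Enzyme (0.2 nM) pre-incubated 1 h with serially diluted inhibitors in 0.05 M acetate pH 4.2, 10% DMSO, 100 uM genapol. Reaction started with 50 nM fluorophore/quencher peptide FRET substrate, run 1 h, stopped with Tris to neutral pH. Fluorescence read at excitation 488 nm, […].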

The mark [3] stands for this setting: text summary referring to data in Table 2.
[4] abbreviates: Cathepsin D FRET assay, read-out: CatD IC50.
Where [5] appears, read: average IC50, HEK cell assay, Aβ 40 readout.
Setting [6] is: average IC50, in vitro enzymatic BACE FRET assay.

Cathepsin D (Cat D), sequence (P07339 65-412, species assumed): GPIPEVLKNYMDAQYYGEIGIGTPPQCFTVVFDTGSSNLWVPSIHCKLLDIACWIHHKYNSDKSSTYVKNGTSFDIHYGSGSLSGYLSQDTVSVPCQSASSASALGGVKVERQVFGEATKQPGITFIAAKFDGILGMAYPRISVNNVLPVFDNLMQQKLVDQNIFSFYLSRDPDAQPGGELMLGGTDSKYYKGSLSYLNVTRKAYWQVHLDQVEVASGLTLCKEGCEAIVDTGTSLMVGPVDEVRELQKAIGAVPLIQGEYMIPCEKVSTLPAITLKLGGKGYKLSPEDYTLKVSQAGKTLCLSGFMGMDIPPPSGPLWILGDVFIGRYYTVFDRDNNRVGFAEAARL
Beta Secretase enzyme (BACE), sequence (P56817 46-501): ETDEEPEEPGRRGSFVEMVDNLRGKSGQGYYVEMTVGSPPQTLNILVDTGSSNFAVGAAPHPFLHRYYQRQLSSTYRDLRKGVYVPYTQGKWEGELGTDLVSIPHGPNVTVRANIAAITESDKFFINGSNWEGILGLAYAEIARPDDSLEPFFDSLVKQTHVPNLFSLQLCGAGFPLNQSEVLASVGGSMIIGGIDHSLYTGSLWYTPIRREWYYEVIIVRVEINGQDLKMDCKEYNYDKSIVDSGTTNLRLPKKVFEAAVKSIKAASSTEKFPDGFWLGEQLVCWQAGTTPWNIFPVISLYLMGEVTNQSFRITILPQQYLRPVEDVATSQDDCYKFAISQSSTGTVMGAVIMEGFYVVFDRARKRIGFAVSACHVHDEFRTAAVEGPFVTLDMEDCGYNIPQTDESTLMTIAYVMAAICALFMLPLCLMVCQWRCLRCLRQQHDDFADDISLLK

Take `Cc1cc(Cl)cnc1C(=O)Nc1ccc2c(c1)[C@@]1(C)N=C(N)C(C)(C)S(=O)(=O)[C@H]1CCC2` [Example 9, N-((4a8,11bR)-2-amino-3,3,11b-trimethyl-4,4-dioxido-3,4a,5,6,7,11b-hexahydrobenzo[3,4]cyclohepta[1,2-b][1,4]thiazin-10-yl)-5-chloro-3-methyl-2-pyridinecarboxamide]: the half-inhibitory concentration (IC50) on Cathepsin D (Cat D) (read-out: CatD IC50) was determined as 757 µM; in test [1] (HEK cell, average IC50), 0.02 µM; in test [2] (average IC50) it was 0.021 µM.
`COc1cnc(C(=O)Nc2ccc3c(c2)[C@@]2(C)N=C(N)C(C)(C)S(=O)(=O)[C@@H]2CCC3)cn1` [Example 10, N-((4aR,11bR)-2-amino-3,3,11b-trimethyl-4,4-dioxido-3,4a,5,6,7,11b-hexahydrobenzo[3,4]cyclohepta[1,2-b][1,4]thiazin-10-yl)-5-methoxy-2-pyrazinecarboxamide]: the half-inhibitory concentration (IC50) amounted to 340 µM on Cathepsin D (Cat D) (read-out: CatD IC50); 0.004 µM in test [1] (HEK cell, average IC50); 0.011 µM in test [2] (average IC50).
The corresponding values for `CC1(C)C(N)=N[C@]2(C)c3cc(Nc4nccc5cc(Cl)cnc45)ccc3CCC[C@H]2S1(=O)=O` [Example 46, (4aR,11bR)-N^~10^~-(3-chloro-1,7-naphthyridin-8-yl)-3,3,11b-trimethyl-3,4a,5,6,7,11b-hexahydrobenzo[3,4]cyclohepta[1,2-b][1,4]thiazine-2,10-diamine 4,4-dioxide] are 85.9 µM, 0.102 µM and 0.01 µM.
As for `Cc1cc(Cl)cnc1C(=O)Nc1cnc2c(c1)[C@@]1(C)N=C(N)C(C)(C)S(=O)(=O)[C@@H]1CCO2` [Example 18, N-((4aR,11bR)-2-amino-3,3,11b-trimethyl-4,4-dioxido-4a,5,6,11b-tetrahydro-3H-pyrido[3′,2′:6,7]oxepino[4,5-b][1,4]thiazin-10-yl)-5-chloro-3-methyl-2-pyridinecarboxamide], the IC50 at Cathepsin D (Cat D) (read-out: CatD IC50) is 1290 µM; on Cathepsin D (Cat D) (setting [3]) it was over 1200 µM; in test [1] (HEK cell, average IC50), 0.014 µM; in test [2] (average IC50), 0.006 µM.
`COc1cnc(C(=O)Nc2ccc3c(c2)[C@@]2(C)N=C(N)C(C)(C)S(=O)(=O)[C@@H]2CC(C)(C)O3)cn1` [Example 100, N-((4aR,11bR)-2-amino-3,3,6,6,11b-pentamethyl-4,4-dioxido-4a,5,6,11b-tetrahydro-3H-[1]benzoxepino[4,5-b][1,4]thiazin-10-yl)-5-methoxy-2-pyrazinecarboxamide]: the IC50 was 1340 µM on Cathepsin D (Cat D) (setting [4]), over 1200 µM at Cathepsin D (Cat D) (setting [3]), 0.012 µM in test [1] (setting [5]) and 0.025 µM in test [2] (setting [6]).
Turning to `Cc1cc(C#CC2CC2)cnc1C(=O)Nc1ccc2c(c1)[C@@]1(C)N=C(N)C(C)(C)S(=O)(=O)[C@@H]1CCO2` [Example 83, N-((4aR,11bR)-2-amino-3,3,11b-trimethyl-4,4-dioxido-4a,5,6,11b-tetrahydro-3H-[1]benzoxepino[4,5-b][1,4]thiazin-10-yl)-5-(cyclopropylethynyl)-3-methyl-2-pyridinecarboxamide], the IC50 on Cathepsin D (Cat D) (setting [4]) is 954 µM; at Cathepsin D (Cat D) (setting [3]), over 800 µM; in test [1] (setting [5]), 0.009 µM; in test [2] (setting [6]), 0.006 µM.
As for `Cc1cc(C(F)F)cnc1C(=O)Nc1ccc2c(c1)[C@@]1(C)N=C(N)C(C)(C)S(=O)(=O)[C@@H]1CCC2` [Example 40, N-((4aR,11bR)-2-amino-3,3,11b-trimethyl-4,4-dioxido-3,4a,5,6,7,11b-hexahydrobenzo[3,4]cyclohepta[1,2-b][1,4]thiazin-10-yl)-5-(difluoromethyl)-3-methyl-2-pyridinecarboxamide], the IC50 at Cathepsin D (Cat D) (read-out: CatD IC50) is over 400 µM; in test [1] (HEK cell, average IC50) it was 0.015 µM; in test [2] (average IC50), 0.035 µM.
Regarding `CC1(C)C(N)=N[C@]2(C)c3cc(NC(=O)c4cnc(C(F)(F)F)cn4)ccc3OCC[C@H]2S1(=O)=O` [Example 164, N-((4aR,11bR)-2-amino-3,3,11b-trimethyl-4,4-dioxido-4a,5,6,11b-tetrahydro-3H-[1]benzoxepino[4,5-b][1,4]thiazin-10-yl)-5-(trifluoromethyl)-2-pyrazinecarboxamide], the IC50 was determined as 1600 µM at Cathepsin D (Cat D) (read-out: CatD IC50); 0.017 µM in test [1] (HEK cells, average IC50); 0.028 µM in test [2] (average IC50).
As to `C[C@H]1C[C@@H]2[C@](C)(N=C(N)C(C)(C)S2(=O)=O)c2cc(NC(=O)c3cnc(OCc4cnn(C)c4)cn3)ccc2O1` [Example 81, N-((4aR,6S,11bR)-2-amino-3,3,6,11b-tetramethyl-4,4-dioxido-4a,5,6,11b-tetrahydro-3H-[1]benzoxepino[4,5-b][1,4]thiazin-10-yl)-5-((1-methyl-1H-pyrazol-4-yl)methoxy)-2-pyrazinecarboxamide], the IC50 on Cathepsin D (Cat D) (setting [4]) was 1310 µM; on Cathepsin D (Cat D) (setting [3]) it was over 1200 µM; in test [1] (setting [5]), 0.072 µM; in test [2] (setting [6]) it was 0.016 µM.
`COc1cnc(C(=O)Nc2ccc3c(c2)[C@@]2(CF)N=C(N)C(C)(C)S(=O)(=O)[C@@H]2C[C@H](C)O3)cn1` [Example 107, N-((4aR,6S,11bS)-2-amino-11b-(fluoromethyl)-3,3,6-trimethyl-4,4-dioxido-4a,5,6,11b-tetrahydro-3H-[1]benzoxepino[4,5-b][1,4]thiazin-10-yl)-5-methoxy-2-pyrazinecarboxamide]: the values for the 50% inhibitory concentration (IC50) (at Cathepsin D (Cat D) (setting [4]); in test [1] (setting [5]); in test [2] (setting [6])) were over 400 µM, 0.11 µM and 0.095 µM, respectively.
The corresponding values for `C#CCOc1cnc(C(=O)Nc2ccc3c(c2)[C@@]2(C)N=C(N)C(C)(C)S(=O)(=O)[C@@H]2CC(C)(C)O3)cn1` [Example 143, N-((4aR,11bR)-2-Amino-3,3,6,6,11b-pentamethyl-4,4-dioxido-4a,5,6,11b-tetrahydro-3H-benzo[6,7]oxepino[4,5-b][1,4]thiazin-10-yl)-5-(prop-2-yn-1-yloxy)pyrazine-2-carboxamide] are 202 µM, 0.0005 µM and 0.002 µM.
For the compound `Cc1cc(Cl)cnc1C(=O)Nc1ccc2c(c1)[C@@]1(C)N=C(N)C(C)(C)S(=O)(=O)[C@]1(C)CCO2` [Example 27, N-((4aR,11bR)-2-amino-3,3,4a,11b-tetramethyl-4,4-dioxido-4a,5,6,11b-tetrahydro-3H-[1]benzoxepino[4,5-b][1,4]thiazin-10-yl)-5-chloro-3-methyl-2-pyridinecarboxamide], the 50% inhibitory concentration (IC50) was determined as 553 µM at Cathepsin D (Cat D) (read-out: CatD IC50); 0.264 µM in test [1] (HEK cell, average IC50); 0.15 µM in test [2] (average IC50).
Regarding `Cc1nc(OCC(F)F)cnc1C(=O)Nc1ccc2c(c1)[C@@]1(C)N=C(N)C(C)(C)S(=O)(=O)[C@@H]1CCO2` [Example 91, N-((4aR,11bR)-2-amino-3,3,11b-trimethyl-4,4-dioxido-4a,5,6,11b-tetrahydro-3H-[1]benzoxepino[4,5-b][1,4]thiazin-10-yl)-5-(2,2-difluoroethoxy)-3-methyl-2-pyrazinecarboxamide], the IC50 on Cathepsin D (Cat D) (setting [4]) was 1870 µM; on Cathepsin D (Cat D) (setting [3]), over 1200 µM; in test [1] (setting [5]) it was 0.027 µM; in test [2] (setting [6]), 0.019 µM.
Take `C#CCOc1cnc(C(=O)Nc2ccc3c(c2)[C@@]2(C)N=C(N)C(C)(C)S(=O)(=O)[C@@H]2C[C@H](C)O3)cn1` [Example 142, N-((4aR,6S,11bR)-2-amino-3,3,6,11b-tetramethyl-4,4-dioxido-4a,5,6,11b-tetrahydro-3H-[1]benzoxepino[4,5-b][1,4]thiazin-10-yl)-5-(2-propyn-1-yloxy)-2-pyrazinecarboxamide]: the half-inhibitory concentration (IC50) amounted to 215 µM at Cathepsin D (Cat D) (setting [4]), 0.0005 µM in test [1] (setting [5]) and 0.001 µM in test [2] (setting [6]).
Consider `CC#CCOc1cnc(C(=O)Nc2ccc3c(c2)[C@@]2(C)N=C(N)C(C)(C)S(=O)(=O)[C@@H]2CC(C)(C)O3)cn1` [Example 98, N-((4aR,11bR)-2-amino-3,3,6,6,11b-pentamethyl-4,4-dioxido-4a,5,6,11b-tetrahydro-3H-[1]benzoxepino[4,5-b][1,4]thiazin-10-yl)-5-(2-butyn-1-yloxy)-2-pyrazinecarboxamide], for which the IC50 was found to be 318 µM at Cathepsin D (Cat D) (setting [4]), 0.0005 µM in test [1] (setting [5]) and 0.002 µM in test [2] (setting [6]).
Regarding `Cc1c(C(=O)Nc2ccc3c(c2)[C@@]2(C)N=C(N)C(C)(C)S(=O)(=O)[C@@H]2C[C@H](C)O3)nc2ccc(Cl)cn12` [Example 77, N-((4aR,6S,11bR)-2-amino-3,3,6,11b-tetramethyl-4,4-dioxido-4a,5,6,11b-tetrahydro-3H-[1]benzoxepino[4,5-b][1,4]thiazin-10-yl)-6-chloro-3-methylimidazo[1,2-a]pyridine-2-carboxamide], the IC50 came to 396 µM on Cathepsin D (Cat D) (read-out: CatD IC50); 0.005 µM in test [1] (HEK cell, average IC50); 0.017 µM in test [2] (average IC50).
In the case of `Cc1cc(COc2cnc3c(Nc4ccc5c(c4)[C@@]4(C)N=C(N)C(C)(C)S(=O)(=O)[C@@H]4C[C@H](C)O5)nccc3n2)on1` [Example 137, (4aR,6S,11bR)-3,3,6,11b-tetramethyl-N^~10^~-(2-((3-methyl-5-isoxazolyl)methoxy)pyrido[3,4-b]pyrazin-5-yl)-4a,5,6,11b-tetrahydro-3H-[1]benzoxepino[4,5-b][1,4]thiazine-2,10-diamine 4,4-dioxide], the IC50 on Cathepsin D (Cat D) (setting [4]) was over 133 µM; in test [1] (setting [5]), 0.091 µM; in test [2] (setting [6]) it was 0.018 µM.
